Legend:
[1] = test system: bovine retinal endothelial cells not treated with VEGF; assay: Growth of endothelial cells not treated with VEGF; assay type: cell-based; conditions: 24 and 48 hours; up to 30 μg/ml
Experimental: (§1) In conducting this in vitro analysis, the following cell lines were tested: (a) bovine retinal endothelial cells; (b) 9L and C6 rat glioma cells; (c) human H80 glioma cells; and (d) VX2 rabbit carcinoma cells (the same type as the tumors implanted in the rabbit corneal micropocket assay test described above). The endothelial mitogen which was used in this analysis was VEGF at a concentration of 20 ng/ml.
The cells were allowed to attach overnight to tissue culture plates containing an optimized growth media. Following attachment, the cells were exposed to solvent only or 5 to increasing concentrations of squalamine (0, 10, 20, 30, 60, and 90 μg squalamine/ml). Cell growth was counted daily for three days using a Coulter Counter. A total of 10,000 cells per well were plated and each experimental concentration was tested in quadruplicate. The results were then averaged. The bovine retinal endothelial cells were grown and treated in an identical manner to the other cell lines, […]
(§2) Percentage endothelial cell growth inhibition (%I) was determined by the following equation: [formula]

H460 = H460 lung tumor xenograft with carboplatin; assay type: in vivo, nude BALBc mice; conditions: carboplatin 60 mg/kg i.p. single dose, squalamine 20 mg/kg once daily for 5 days
Experimental: About 5×10^6 cells from each of two human lung tumor lines, H460 (a rapidly proliferating large cell carcinoma cell line, ATCC HTB-177) and Calu-6 (an anaplastic carcinoma, ATCC HTB-56), were inoculated subcutaneously in the right foreleg of nude BALBc mice. Once tumors were visible (3-5 days) with a mean volume of approximately 50-80 mm^3, mice were treated intraperitoneally with 60 mg/kg carboplatin (single dose) or 20 mg/kg/squalamine (once daily for 5 days) or a combination of carboplatin and squalamine. There were 8 mice per group. Tumor growth inhibition was scored by quantifying the size of tumors once control tumors reached a size of 1.0 gram and determining the ratio of mean treated tumor size to mean control tumor size (T/C). Tumor growth inhibition was then scored as 100% x [1-(T/C)]. A separate antitumor activity variable, tumor growth delay, was scored for the tumors by determining the length of time it required for the mean tumor size in a treatment group to reach a size of 500 mm^3 (B. A. Teicher et al., Anticancer Research 18, 2567-2574 (1998)). The tumor growth inhibition seen with carboplatin plus squalamine was greater than that seen with carboplatin or squalamine alone. The relative inactivity of squalamine as a single agent by this assay endpoint supports the idea that squalamine is synergistic with carboplatin in the inhibition of these two human lung tumor xenografts. Similarly, it was determined that squalamine enhanced the tumor growth delay caused by carboplatin by an enhancement factor of >2.3 (Table 7).

[2] = test system: 9L and C6 rat glioma cells, human H80 glioma cells, VX2 rabbit carcinoma cells; assay: Proliferation of tumor cell lines; assay type: cell-based
Experimental: as §1
The cells were allowed to attach overnight to tissue culture plates containing an optimized growth media. Following attachment, the cells were exposed to solvent only or 5 to increasing concentrations of squalamine (0, 10, 20, 30, 60, and 90 μg squalamine/ml). Cell growth was counted daily for three days using a Coulter Counter. A total of 10,000 cells per well were plated and each experimental concentration was tested in quadruplicate. The results were then averaged. The bovine retinal endothelial cells were grown and treated in an identical manner to the other cell lines, except that the growth of these cells was measured after the addition of 20 ng/ml of human recombinant VEGF to the cells prior to the squalamine treatment.
as §2

[3] = test system: capillary beds of young chick embryos; assay: Capillary regression in chick embryo capillary beds; assay type: in vivo; conditions: one time dose 100 ng
Experimental: A one time dose (100 ng) of squalamine was applied to capillary beds of young chick embryos that were 2-3 days old. After five minutes, this dose of squalamine appeared to have little effect on the capillary beds.
The capillary bed also was observed after sixty minutes. At this time, it was noted that some of the capillary vessels were beginning to re-appear, but only the more major vessels were re-appearing. The small vessels were not re-appearing at that time. Four to five days after the one time squalamine treatment, the effect of the squalamine dose was no longer apparent, but newly formed capillaries in the embryos remained susceptible to squalamine induced regression for a limited time while they were newly formed.
From this test, applicants concluded that squalamine-induced capillary regression is reversible, at least with respect to certain capillaries.

parental 2008 cell line = assay: Human ovarian tumor 2008 xenograft with cisplatin; assay type: in vivo, female Swiss nude mice; conditions: cisplatin single dose 4 mg/kg, squalamine 2 mg/kg, days 1-10
Experimental: Human ovarian tumor cells were injected subcutaneously (5×10^7 cells per animal) in the mid-back region of female Swiss nude mice. The human ovarian tumors were either the parental 2008 cell line (cf. R. J. Pietras et al., Oncogene 9, 1829-1838 (1994)) or a transfected variant overexpressing the Her-2/neu receptor. The overexpression of the Her-2/neu receptor is considered to make the resulting xenograft tumors more angiogenic and less responsive to chemotherapy. After one week, animals were randomized to groups receiving no treatment (controls), a single dose of cisplatin (4 mg/kg), daily treatment with squalamine (2 mg/kg, days 1-10) or cisplatin plus squalamine. The growth of tumors was then scored on day 28 following initiation of chemotherapy. The results were very similar with the parental 2008 tumor and the transfected variant overexpressing the Her-2/neu receptor. […] In this xenograft model, the [day 28 mean treated tumor weight increase divided by the day 28 mean control tumor weight increase (T/C)] x 100% was subtracted from 100% to give the tumor growth inhibition (TGI) value for each group.

NHE = assay: Direct addition to PS 120 fibroblasts during measurement of exchanger activity; assay type: cell-based; conditions: no pretreatment
Excerpt: Direct addition of squalamine to PS 120 fibroblasts during measurement of the exchanger activity had no effect.

[4] = Pharmacokinetic study, half-life; conditions: in vivo
Experimental: A pharmacokinetic study of squalamine was performed to ascertain the residence time of squalamine in the body. FIGS. 6a to 6c illustrate the test results where squalamine was administered subcutaneously (50 mg/kg, FIG. 6a), intraperitoneally (dose 240 μg; 10 mg/kg, FIG. 6b), and intravenously (10 mg/kg, FIG. 6c).

## CC(C)[C@@H](CC[C@@H](C)[C@H]1CC[C@H]2[C@@H]3[C@H](O)C[C@H]4C[C@@H](NCCCNCCCCN)CC[C@]4(C)[C@H]3CC[C@]12C)OS(=O)(=O)O [Squalamine, squalamine]
[1]
  cell proliferation by endothelial cells not treated with VEGF: statistically unaffected
H460
  Tumor Growth Inhibition (T/C): 6%
[2]; 30 μg/ml, 1, 2 and 3 days (FIG. 9)
  growth of H80, C6 and VX2 cell lines as percentage of control: not dramatically affected
[2]; 24 and 48 hours, up to 30 μg/ml
  cell proliferation by all tumor lines: statistically unaffected
[3]; after five minutes
  effect on capillary beds: little effect
[3]; after forty minutes
  effect on capillary beds: additional capillary regression was observed
[3]; in twenty minutes
  effect on capillary beds: the capillary bed appeared to be disappearing
Parental 2008 cell line
  Day 28 Mean Tumor Size: 2254 mm^3
Parental 2008 cell line; day 28
  Tumor Growth Inhibition (TGI) Index: 41%
NHE
  effect of direct addition during measurement of exchanger activity: no effect
[4]; ip, intraperitoneally, dose 240 μg, 10 mg/kg
  half-life: 2.87 h
[4]; iv, intravenously, 10 mg/kg
  half-life: 0.583 h
[4]; sc, subcutaneously, 50 mg/kg
  half-life: 5.6 h

Reference: US6596712B2, “Treatment of carcinomas using squalamine in combination with other anti-cancer agents or modalities” (Genaera Corporation, priority 1996, dated 2003)
